Results reported in patent US20230203081A1, “LINCOSAMIDE ANTIBIOTICS AND USES THEREOF” (President and Fellows of Harvard College, priority 2020, published 2023).
Converted amounts (≈) assume the structure as drawn.

Columns and labels:
Assay type in all cases: cell-based
[1] = tested on: S. pneumoniae MMX 3028 cErmB; assay: MIC (broth microdilution or agar dilution, CLSI); conditions: Streptococcus pneumoniae, MMX3028CERMB; S. pneumoniae HAV#033; MMX 3028, cErmB; read-out: MIC
Procedure, shortened: (§1)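 Per CLSI, MICs by broth microdilution or agar dilution; strains other than streptococci and anaerobes were sub-cultured overnight at 35° C on blood agar, with a final broth inoculum of 5×10^5 CFU/mL.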

S. pneumoniae ATCC 6303 = assay: MIC (broth microdilution or agar dilution, CLSI); conditions: Streptococcus pneumoniae, ATCC6303; S. pneumoniae HAV#351, ATCC 6303; read-out: MIC
Procedure, shortened: as §1

S. pyogenes ATCC 19615 = assay: MIC (broth microdilution or agar dilution, CLSI); conditions: Streptococcus pyogenes, ATCC19615, S. pyogenes HAV#004, ATCC 19615; read-out: MIC
Procedure, shortened: as §1

E. faecalis ATCC 29212 = assay: MIC (broth microdilution or agar dilution, CLSI); conditions: Enterococcus faecalis, ATCC29212, E. faecalis HAV#005, ATCC 29212; read-out: MIC
Procedure, shortened: as §1

K. oxytoca Clinical = assay: MIC (broth microdilution or agar dilution, CLSI); conditions: Klebsiella oxytoca; K. oxytoca HAV#450; Clinical; read-out: MIC
Procedure, shortened: as §1

[2] = tested on: S. pyogenes MMX 946; cErmB; assay: MIC (broth microdilution or agar dilution, CLSI); conditions: Streptococcus pyogenes; S. pyogenes HAV#035, MMX 946; cErmB, mac-resistant; read-out: MIC
Procedure, shortened: as §1

[3] = tested on: S. pneumoniae MMX 3031 cMefA; assay: MIC (broth microdilution or agar dilution, CLSI); conditions: Streptococcus pneumoniae, MMX3031CMEFA, S. pneumoniae HAV#034; MMX 3031, cMefA; read-out: MIC
Procedure, shortened: as §1

S. aureus hVISA = assay: MIC (broth microdilution or agar dilution, CLSI); conditions: Staphylococcus aureus; S. aureus HAV#204, hVISA; read-out: MIC
Procedure, shortened: as §1

S. aureus ATCC 29213 = assay: MIC (broth microdilution or agar dilution, CLSI); conditions: Staphylococcus aureus, ATCC29213, S. aureus HAV#001, ATCC 29213, MP-549; read-out: MIC
Procedure, shortened: as §1

[4] = tested on: S. aureus ATCC BAA-1707 (MRSA); assay: MIC (broth microdilution or agar dilution, CLSI); conditions: Staphylococcus aureus; S. aureus HAV#016, ATCC BAA-1707; MRSA; read-out: MIC
Procedure, shortened: as §1

S. aureus ATCC 700699 = assay: MIC (broth microdilution or agar dilution, CLSI); conditions: Staphylococcus aureus; S. aureus HAV#202, ATCC 700699 (VISA); read-out: MIC
Procedure, shortened: as §1

S. pneumoniae ATCC 49619 = assay: MIC (broth microdilution or agar dilution, CLSI); conditions: Streptococcus pneumoniae, ATCC49619, S. pneumoniae HAV#003, ATCC 49619; read-out: MIC
Procedure, shortened: as §1

S. aureus BAA 977 iErmA = assay: microbe, parasite or virus in culture; conditions: Staphylococcus aureus, BAA-977 / MRSA
Procedure, shortened: as §1

S. aureus MP-549 msrA = assay: microbe, parasite or virus in culture; conditions: Staphylococcus aureus, MP549MSRA; S. aureus HAV#032, MP-549; MSR(A); read-out: MIC
Procedure, shortened: as §1

[5] = tested on: broad panel of different clinical isolates; assay: microbe, parasite or virus in culture
Procedure, shortened: as §1

## C[C@H]1c2cccc(O)c2C(=O)C2=C(O)[C@]3(O)C(=O)C(C(N)=O)=C(O)[C@@H](N(C)C)[C@@H]3[C@@H](O)[C@@H]21 [Doxycycline]
[1]
  MIC: 1 µg/mL (≈ 2.25 µM)
S. pneumoniae ATCC 6303
  MIC: 0.125 µg/mL (≈ 0.281 µM)
S. pyogenes ATCC 19615
  MIC: 0.125 µg/mL (≈ 0.281 µM)
E. faecalis ATCC 29212
  MIC: 4 µg/mL (≈ 9 µM)
K. oxytoca Clinical
  MIC: 8 µg/mL (≈ 18 µM)
[2]
  MIC: 0.125 µg/mL (≈ 0.281 µM)
[3]
  MIC: 0.125 µg/mL (≈ 0.281 µM)
S. aureus hVISA
  MIC: 16 µg/mL (≈ 36 µM)
S. aureus ATCC 29213
  MIC: 0.25 µg/mL (≈ 0.563 µM)
[4]
  MIC: 0.25 µg/mL (≈ 0.563 µM)
S. aureus ATCC 700699
  MIC: 16 µg/mL (≈ 36 µM)
S. pneumoniae ATCC 49619
  MIC: 0.125 µg/mL (≈ 0.281 µM)
S. aureus BAA 977 iErmA
  MIC: 0.25 µg/mL (≈ 0.563 µM)
S. aureus MP-549 msrA
  MIC: 8 µg/mL (≈ 18 µM)
[5]; Acinetobacter baumannii, A. baumannii HAV#651, Clinical
  MIC: 0.125 µg/mL (≈ 0.281 µM)
[5]; Acinetobacter baumannii, A. baumannii HAV#652 Clinical
  MIC: 0.5 µg/mL (≈ 1.13 µM)
[5]; Acinetobacter baumannii, A. baumannii HAV#653, Clinical
  MIC: 0.125 µg/mL (≈ 0.281 µM)
[5]; Acinetobacter baumannii, A. baumannii HAV#654, Clinical
  MIC: < 0.06 µg/mL
[5]; Acinetobacter baumannii, A. baumannii HAV#655, Clinical
  MIC: 0.5 µg/mL (≈ 1.13 µM)
[5]; Acinetobacter baumannii, A. baumannii HAV#656, Clinical
  MIC: 32 µg/mL (≈ 72 µM)
[5]; Acinetobacter baumannii, A. baumannii HAV#657, Clinical
  MIC: 0.5 µg/mL (≈ 1.13 µM)
[5]; Acinetobacter baumannii, A. baumannii HAV#658, Clinical
  MIC: 0.06 µg/mL (≈ 0.135 µM)
[5]; Acinetobacter baumannii, A. baumannii HAV#659, Clinical
  MIC: 0.5 µg/mL (≈ 1.13 µM)
[5]; Acinetobacter baumannii, A. baumannii HAV#660, Clinical
  MIC: 1 µg/mL (≈ 2.25 µM)
[5]; Acinetobacter baumannii, A. baumannii HAV#661, Clinical
  MIC: 0.125 µg/mL (≈ 0.281 µM)
[5]; Acinetobacter baumannii, A. baumannii HAV#662, Clinical
  MIC: 0.25 µg/mL (≈ 0.563 µM)
[5]; Acinetobacter baumannii, A. baumannii HAV#663, Clinical
  MIC: 0.125 µg/mL (≈ 0.281 µM)
[5]; Acinetobacter baumannii, A. baumannii HAV#664, Carbapenem R
  MIC: 2 µg/mL (≈ 4.5 µM)
[5]; Enterococcus faecalis, E. faecalis HAV#602, Clincal
  MIC: 0.25 µg/mL (≈ 0.563 µM)
[5]; Enterococcus faecalis, E. faecalis HAV#607, Clinical
  MIC: 1 µg/mL (≈ 2.25 µM)
[5]; Enterococcus faecalis, E. faecalis HAV#608, Clinical
  MIC: 0.5 µg/mL (≈ 1.13 µM)
[5]; Enterococcus faecalis, E. faecalis HAV#609, Clinical
  MIC: 8 µg/mL (≈ 18 µM)
[5]; Enterococcus faecalis, E. faecalis HAV#610, Clinical
  MIC: 0.5 µg/mL (≈ 1.13 µM)
[5]; Enterococcus faecalis, S. faecalis 5074, Line R
  MIC: 64 µg/mL (≈ 144 µM)
[5]; Enterococcus faecalis, VRE, E. faecalis HAV#251, Clinical VRE
  MIC: 0.125 µg/mL (≈ 0.281 µM)
[5]; Enterococcus faecalis, VRE, E. faecalis HAV#606, Clinical
  MIC: 16 µg/mL (≈ 36 µM)
[5]; Enterococcus faecium, E. faecium HAV#317, Clinical
  MIC: 0.25 µg/mL (≈ 0.563 µM)
[5]; Enterococcus faecium, E. faecium HAV#324, Clinical
  MIC: 0.25 µg/mL (≈ 0.563 µM)
[5]; Enterococcus faecium, E. faecium HAV#327, Clinical
  MIC: 0.25 µg/mL (≈ 0.563 µM)
[5]; Enterococcus faecium, E. faecium HAV#328, Clinical
  MIC: 0.25 µg/mL (≈ 0.563 µM)
[5]; Enterococcus faecium, E. faecium HAV#329, Clinical
  MIC: 0.25 µg/mL (≈ 0.563 µM)
[5]; Enterococcus faecium, VRE, E. faecium HAV#318, VanA
  MIC: 4 µg/mL (≈ 9 µM)
[5]; Enterococcus faecium, VRE, E. faecium HAV#319, Line R & Vanco R
  MIC: 16 µg/mL (≈ 36 µM)
[5]; Enterococcus faecium, VRE, E. faecium HAV#320, Clinical
  MIC: > 128 µg/mL
[5]; Escherichia coli, E. coli HAV#503, Clinical
  MIC: 32 µg/mL (≈ 72 µM)
[5]; Escherichia coli, E. coli HAV#511, Clinical
  MIC: 2 µg/mL (≈ 4.5 µM)
[5]; Escherichia coli, E. coli HAV#512, Clinical
  MIC: 2 µg/mL (≈ 4.5 µM)
[5]; Escherichia coli, E. coli HAV#513, Clinical
  MIC: 32 µg/mL (≈ 72 µM)
[5]; Escherichia coli, E. coli HAV#514, Clinical
  MIC: 2 µg/mL (≈ 4.5 µM)
[5]; Escherichia coli, E. coli HAV#516, ESBL-producing
  MIC: 8 µg/mL (≈ 18 µM)
[5]; Haemophilus influenzae, ATCC9007, H. influenzae HAV#376, ATCC-9007
  MIC: 0.25 µg/mL (≈ 0.563 µM)
[5]; Klebsiella pneumoniae, K. pneumoniae HAV#404, Clinical
  MIC: 4 µg/mL (≈ 9 µM)
[5]; Klebsiella pneumoniae, K. pneumoniae HAV#405, Clinical
  MIC: 2 µg/mL (≈ 4.5 µM)
[5]; Klebsiella pneumoniae, K. pneumoniae HAV#406, Clinical
  MIC: 2 µg/mL (≈ 4.5 µM)
[5]; Klebsiella pneumoniae, K. pneumoniae HAV#407, Clinical
  MIC: 32 µg/mL (≈ 72 µM)
[5]; Klebsiella pneumoniae, K. pneumoniae HAV#408, Clinical
  MIC: 32 µg/mL (≈ 72 µM)
[5]; Klebsiella pneumoniae, K. pneumoniae HAV#409, ESBL-producing
  MIC: 16 µg/mL (≈ 36 µM)
[5]; Staphylococcus aureus, MRSA, S. aureus HAV#0107, MRSA Col(Colindale, England)
  MIC: 64 µg/mL (≈ 144 µM)
[5]; Staphylococcus aureus, MRSA, S. aureus HAV#218, Line R
  MIC: 16 µg/mL (≈ 36 µM)
[5]; Staphylococcus aureus, MRSA, S. aureus HAV#220, Line R
  MIC: 8 µg/mL (≈ 18 µM)
[5]; Staphylococcus aureus, MSSA, S. aureus HAV#219, Line R
  MIC: 1 µg/mL (≈ 2.25 µM)
[5]; Staphylococcus aureus, S. aureus HAV#051, mecA, norA, spcl, ermA, aad1, aac6′-aph2″
  MIC: 0.5 µg/mL (≈ 1.13 µM)
[5]; Staphylococcus aureus, S. aureus HAV#052, mecA, norA, fosB, blaZ
  MIC: 0.5 µg/mL (≈ 1.13 µM)
[5]; Staphylococcus aureus, S. aureus HAV#053 mecA, norA, fosB
  MIC: 0.5 µg/mL (≈ 1.13 µM)
[5]; Staphylococcus aureus, S. aureus HAV#054, mecA, norA, spcl, aad1, fosB, ermA, aac6′-aph2″, blaZ
  MIC: 2 µg/mL (≈ 4.5 µM)
[5]; Staphylococcus aureus, S. aureus HAV#211, Clinical
  MIC: 4 µg/mL (≈ 9 µM)
[5]; Staphylococcus aureus, S. aureus HAV#212, Clinical
  MIC: 0.25 µg/mL (≈ 0.563 µM)
[5]; Staphylococcus aureus, S. aureus HAV#213, Clinical
  MIC: 0.125 µg/mL (≈ 0.281 µM)
[5]; Staphylococcus aureus, S. aureus HAV#214, Clinical
  MIC: 0.25 µg/mL (≈ 0.563 µM)
[5]; Staphylococcus aureus, S. aureus HAV#215, Clinical
  MIC: 0.25 µg/mL (≈ 0.563 µM)
[5]; Staphylococcus aureus, S. aureus HAV#216, Clinical, cfr
  MIC: 0.25 µg/mL (≈ 0.563 µM)
[5]; Staphylococcus aureus, S. aureus HAV#217, cfr
  MIC: 4 µg/mL (≈ 9 µM)
[5]; Staphylococcus aureus, VISA, S. aureus HAV#203, Clinical (VISA)
  MIC: 8 µg/mL (≈ 18 µM)
[5]; Staphylococcus epidermidis, S. epidermidis HAV# 275 Clinical, cfr
  MIC: 1 µg/mL (≈ 2.25 µM)
[5]; Staphylococcus epidermidis, S. epidermidis HAV# 276, cfr
  MIC: 2 µg/mL (≈ 4.5 µM)
[5]; Staphylococcus epidermidis, S. epidermidis HAV#277, Line R
  MIC: 8 µg/mL (≈ 18 µM)
[5]; Staphylococcus epidermidis, S. epidermidis HAV#278 Line R
  MIC: 4 µg/mL (≈ 9 µM)
[5]; Staphylococcus epidermidis, S. epidermidis HAV#279, Line R
  MIC: 32 µg/mL (≈ 72 µM)
[5]; Staphylococcus haemolyticus, S. haemolyticus 5052, Line R & Methicillin R
  MIC: 4 µg/mL (≈ 9 µM)
[5]; Streptococcus pneumoniae, ATCC700673, S. pneumoniae HAV#352, ATCC 700673, MDR
  MIC: 4 µg/mL (≈ 9 µM)
[5]; Streptococcus pneumoniae, ATCCBAA255, S. pneumoniae HAV#354, ATCC-BAA-255
  MIC: 0.25 µg/mL (≈ 0.563 µM)
[5]; Streptococcus pneumoniae, ATCCBAA334, S. pneumoniae HAV#353, ATCC-BAA-334
  MIC: 0.25 µg/mL (≈ 0.563 µM)
[5]; Streptococcus pneumoniae, S. pneumoniae HAV#356, Clinical
  MIC: 2 µg/mL (≈ 4.5 µM)
[5]; Streptococcus pneumoniae, S. pneumoniae HAV#358, Clinical
  MIC: 0.25 µg/mL (≈ 0.563 µM)
